Reference: EP0388528B1, “Carboximidamide derivatives” (KIRIN BEER KABUSHIKI KAISHA, priority 1988, dated 1990)

What was measured:
isolated rat aortae = test: Vasorelaxing effect on the isolated rat aortae (Referential Example 1)-1); details: inhibition of contraction induced by 40 mM KCl
Procedure: The compounds of the present invention were tested for their physiological activities by measuring the tension of isolated rat aortae isometrically.
Thoracic aortae obtained from male Wistar rats (weighing 250-350 g) were cut into ring segments about 3 mm long. The ring preparation was placed in an organ bath filled with 10 ml of Krebs-Ringer solution that was maintained at 37°C and gassed with 95% O₂ - 5% CO₂.
The preparation in the organ bath was allowed to equilibrate under resting tension of 1 g. After equilibration period, the solution in the organ bath was replaced with an isotonic solution containing 40 mM KCl to contract the preparation.
After the contraction induced by KCl had reached plateau, the concentration-response relationship for the test compound was determined by means of cumulative addition.
The relaxation response of the test compounds was expressed as the percent inhibition of the contraction induced by KCl, and the IC₅₀ value, which is a concentration required for inhibiting the contraction induced by KCl to an extent of 50%, was calculated by the Probit method from the concentration-response curve.

potassium channel = test: Potassium channel activating effect (86Rb efflux from rat thoracic aorta); details: compound 10⁻⁴ M for 8 minutes, percent of the efflux before application
Procedure: Male Wistar rats (weighing 250-350 g) were dehematized to death, and thoracic aortae were rapidly isolated. The aorta was opened along the longitudinal axis to prepare a flat sheet. The preparation was loaded with ⁸⁶Rb in the Krebs-Ringer solution which contained ⁸⁶Rb in the concentration of 10 µCi/ml and was gassed with 95% O₂ - 5% CO₂ at 37°C for 2 hours. The preparation was then transferred to a Krebs-Ringer solution not containing ⁸⁶Rb, and washed to remove excess radioactivity for 18 minutes by refreshing the solution every 2 minutes. Finally the preparation was placed into a Krebs-Ringer solution containing each compound (10⁻⁴ M) for 8 minutes.
The amount of ⁸⁶Rb efflux from the preparation in each period was determined with a γ-counter.
The increment in efflux rate during the application of the compound was expressed as percent of the efflux before the application of the compound.

[1] = test system: spontaneous hypertensive rats (SHR); test: Hypotensive effect on spontaneous hypertensive rats (intravenously) (Referential Example 1)-3); type: in vivo; details: Rattus norvegicus, iv, anesthetized SHR, dose descending mean blood pressure by 20%; read-out: ED₂₀ (mg/kg, i.v.)
Procedure: Rats were anesthetized with urethane-α-chloralose (1 g/kg - 25 mg/kg; intraperitoneally). Mean blood pressure was measured by a pressure transducer through a cannula inserted into the carotid artery. The compound was cumulatively administered every 30 minutes through the cannula inserted into the jagular vein. The change in blood pressure was expressed as percent of the blood pressure before the administration of the compound. And the ED₂₀ value, which was the dose required for descending blood pressure to an extent of 20%, was calculated from the dose-response curve.

isolated heart of rats = test: Myocardiac injury induced by re-perfusion after ischemia (isolated heart of rats); details: 1×10⁻⁷ mole/min, after 30 minutes re-perfusion, mean ± SD
Procedure: The cardiac muscle protecting effect of the compound of the present invention was tested by using the isolated heart of rats [test compound: N-cyano-N′-(2-nitroxyethyl)-3-pyridinecarboximidamide (compound (13))]. The Langendorff's method was used in the same manner as in the aforementioned Referential Example 1)-6. The isolated heart was perfused with a perfusate for 30 minutes and then with a perfusate containing the test compound for 10 minutes, and perfusion was stopped so that the heart was in the so-called "ischemic state". Pacing was performed during the ischemia. […] Parameters of cardiac function after the onset of re-perfusion was monitored for 30 minutes, and the heart was quickly freezed. The amount of ATP in the heart muscle was extracted with perchloric acid and determined by HPLC. Nicorandil was used as a control.
The recovery rate of the cardiac function (heart rate × left ventricular pressure) after onset of reperfusion was calculated based on the cardiac function prior to the perfusion of the compound (13) and nicorandil as 100%. The amount of ATP in the heart muscle was also determined.

male ddY mice = test: Effect on hypoxia (survival time in mice); type: in vivo
Procedure: The effect of the compound of the present invention [test compound: N-cyano-N′-(2-nitroxyethyl)-3-pyridinecarboximidamide (compound (13))] on hypoxia was examined in male ddY mice (4 week old). Mice were exposed to a gas mixture of 96% N₂ - 4% O₂ that was streamed in a flow rate of 5 ℓ/min.
The time from the onset of the gas stream till the stop of respiration [survival time (sec)] was measured.
The test compound was orally administered in the dosage form of a 2% suspension in gum arabic 30 minutes before the onset of the gas streaming. The control group was administered a gum arabic suspension only.

Structure (SMILES): N#CNC(=NCCO[N+](=O)[O-])c1cccnc1 [Compound (13), N-cyano-N'-(2-nitroxyethyl)-3-pyridinecarboximidamide]
- IC50 (isolated rat aortae): 5.1 µM
- Increment of Efflux (%) (potassium channel): 213.53%
- ED20 [1]: 0.01 mg/kg
- Amount of ATP in the heart muscle (µmole/g of dry weight) (isolated heart of rats): 11.12±1.12(6) µmole/g of dry weight
- Survival Time (sec) mean ± S.E.M. (male ddY mice; 0.3 mg/kg orally 30 minutes before 96% N₂ - 4% O₂): 130.27 ± 9.32 s
- Survival Time (sec) mean ± S.E.M. (male ddY mice; 1.0 mg/kg orally 30 minutes before 96% N₂ - 4% O₂): 201.00 ± 13.40 s
- Survival Time (sec) mean ± S.E.M. (male ddY mice; 3.0 mg/kg orally 30 minutes before 96% N₂ - 4% O₂): 523.15 ± 48.57 s
